Among the data in PubChem BioAssay (NCI) are TGI and GI50 values, retold here.

Each structure is given as a SMILES string. Several values for one entry are separate records, joined by “and”; a condition that tells them apart may be missing. Equal entries are not always repeated.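 48-hour exposure; five concentrations; linearly interpolated endpoints. GI50 = concentration required for 50% inhibition of growth. TGI: total growth inhibition.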

Some test systems named below: UACC-62 melanoma; SNB-19 CNS; SNB-75 CNS; M14 melanoma; SW-620 colon; OVCAR-4 ovarian; EKVX NSCLC; K-562 leukemia; IGROV1 ovarian; COLO 205 colon.
Holding throughout (experiment): NCI tumour cell line growth inhibition, 48 h

As to `CCOC(=O)/C=C(/CN1C(=O)c2ccccc2C1=O)c1ccccc1`, the TGI with UACC-62 melanoma, in the experiment on SNB-19 CNS, in the experiment with SNB-75 CNS, in the experiment on M14 melanoma, in the experiment with SW-620 colon and in the experiment on OVCAR-4 ovarian was over 100 µM throughout. The TGI with EKVX NSCLC, in the experiment on K-562 leukemia, with IGROV1 ovarian and in the experiment with COLO 205 colon was over 100 µM in each case.
Turning to `O=C(O)c1nnsc1COCc1ccccc1`, the TGI in the experiment on UACC-62 melanoma, with SNB-19 CNS, with SNB-75 CNS, with M14 melanoma, in the experiment on SW-620 colon and in the experiment on OVCAR-4 ovarian was over 100 µM throughout. In addition, the TGI in the experiment with EKVX NSCLC, in the experiment on K-562 leukemia, in the experiment with IGROV1 ovarian and in the experiment on COLO 205 colon was over 100 µM each time.
Consider `[Cl][Sn]([c]1ccccc1)[c]1ccccc1`, for which the GI50 in the experiment on UACC-62 melanoma is 3.22 µM; in the experiment on SNB-19 CNS, 11.6 µM; in the experiment with SNB-75 CNS, 6.18 µM; in the experiment with M14 melanoma it was 8.24 µM; with SW-620 colon, 1.95 µM; in the experiment on OVCAR-4 ovarian it was 15.2 µM. Further, the GI50 in the experiment on EKVX NSCLC was 6.57 µM; with K-562 leukemia it was 2.14 µM; in the experiment with IGROV1 ovarian, 17.7 µM; in the experiment on COLO 205 colon, 7.45 µM. The TGI worked out at 9.57 µM with UACC-62 melanoma; 23.8 µM in the experiment with SNB-19 CNS; 19.4 µM with SNB-75 CNS; 24.4 µM in the experiment with M14 melanoma; 4.49 µM in the experiment with SW-620 colon; 29.8 µM in the experiment with OVCAR-4 ovarian. In addition, the TGI in the experiment on EKVX NSCLC is 15.5 µM; in the experiment on K-562 leukemia, 7.31 µM; in the experiment with IGROV1 ovarian, 43.7 µM; in the experiment on COLO 205 colon it was 38.2 µM.
For `O=C1C=C(c2cc(Br)c(O)c(Br)c2)/C(=C/c2cc(Br)c(O)c(Br)c2)O1`, the GI50 is 16.8 µM in the experiment on UACC-62 melanoma; 14 µM in the experiment with SNB-19 CNS; 39 µM with SNB-75 CNS; 17.8 µM in the experiment with M14 melanoma; 29.7 µM in the experiment with SW-620 colon; 50.4 µM with OVCAR-4 ovarian. Moreover, the GI50 with EKVX NSCLC was 54.1 µM; in the experiment with K-562 leukemia, 24 µM; in the experiment with IGROV1 ovarian, 17.8 µM; in the experiment on COLO 205 colon, 29.8 µM. Moreover, the TGI in the experiment on UACC-62 melanoma was 38.2 µM; in the experiment with SNB-19 CNS it was over 75 µM; in the experiment on SNB-75 CNS, over 75 µM; in the experiment on M14 melanoma, over 75 µM; with SW-620 colon, over 75 µM; with OVCAR-4 ovarian, over 75 µM. The TGI in the experiment on EKVX NSCLC, in the experiment with K-562 leukemia, with IGROV1 ovarian and in the experiment with COLO 205 colon was over 75 µM each time.
For the molecule `CC(SC1=CC(=O)c2c(O)ccc(O)c2C1=O)C(=O)O` (centres undefined), the TGI in the experiment with UACC-62 melanoma is 36.6 µM; in the experiment with SNB-19 CNS it was over 100 µM; in the experiment on SNB-75 CNS, over 75.9 µM; in the experiment on M14 melanoma it was over 75.8 µM; in the experiment on SW-620 colon, over 55.6 µM; with OVCAR-4 ovarian it was 35 µM. Besides, the TGI in the experiment with EKVX NSCLC was over 100 µM; with K-562 leukemia, 40.7 µM; in the experiment with IGROV1 ovarian it was over 68.6 µM; in the experiment on COLO 205 colon, over 60.3 µM.
Consider `CC1=C(N2CC2)C(=O)c2nc3n(c2C1=O)CCC3O` (centres undefined), for which the TGI in the experiment with UACC-62 melanoma was found to be 0.482 µM; with SNB-19 CNS, 0.97 µM; with SNB-75 CNS, 1.23 µM; in the experiment with M14 melanoma, 2.8 µM; in the experiment with SW-620 colon, 0.726 µM; in the experiment with OVCAR-4 ovarian, 0.269 µM. The TGI was determined as 1.13 µM with EKVX NSCLC, 5.06 µM with K-562 leukemia, 1.2 µM in the experiment on IGROV1 ovarian and 1.33 µM in the experiment with COLO 205 colon.
Regarding `CC1=C2N3C[C@@H](n4c(=O)n(C)c(=O)n43)C23CCC1n1c(=O)n(C)c(=O)n13`, the TGI in the experiment with UACC-62 melanoma is over 100 µM; in the experiment on SNB-19 CNS, over 100 µM; in the experiment on SNB-75 CNS, over 100 µM; with M14 melanoma, over 100 µM; with SW-620 colon, 54.8 µM; in the experiment on OVCAR-4 ovarian, over 100 µM. Besides, the TGI in the experiment on EKVX NSCLC, with K-562 leukemia, in the experiment on IGROV1 ovarian and in the experiment with COLO 205 colon was over 100 µM throughout.
For `O=C1Cc2c(-c3ccccc3)cc(-c3cccc(Cl)c3)nc2-c2ccccc2N1`, the TGI was 12.2 µM with UACC-62 melanoma; 3.59 µM with SNB-19 CNS; 6.04 µM with SNB-75 CNS; over 63.9 µM with M14 melanoma; over 100 µM with SW-620 colon; 5.71 µM in the experiment on OVCAR-4 ovarian. Further, the TGI was 12.6 µM with EKVX NSCLC, over 40.3 µM in the experiment on K-562 leukemia, 6.45 µM in the experiment on IGROV1 ovarian and over 58.3 µM in the experiment on COLO 205 colon.
For `COC(=O)c1ccc2c(c1)c1c(C)c3cnccc3c(C)c1n2C`, the GI50 with UACC-62 melanoma is 0.0416 µM; in the experiment with SNB-19 CNS, 0.0509 µM; in the experiment on SNB-75 CNS it was 0.072 µM; in the experiment on M14 melanoma it was 0.0622 µM; with SW-620 colon it was 0.0375 µM; in the experiment with OVCAR-4 ovarian, 0.0839 µM. Also, the GI50 in the experiment with EKVX NSCLC was 0.186 µM; in the experiment with K-562 leukemia, 0.0442 µM; in the experiment with IGROV1 ovarian, 0.0323 µM; in the experiment with COLO 205 colon, 0.0387 µM. The TGI in the experiment on UACC-62 melanoma was 0.151 µM; with SNB-19 CNS, 7.65 µM; in the experiment with SNB-75 CNS it was 0.563 µM; in the experiment with M14 melanoma, 0.241 µM; in the experiment with SW-620 colon, 1.31 µM; with OVCAR-4 ovarian, 0.531 µM. The TGI in the experiment with EKVX NSCLC is 0.623 µM; in the experiment with K-562 leukemia, 1.8 µM; in the experiment with IGROV1 ovarian, 0.569 µM; in the experiment with COLO 205 colon it was 0.277 µM.
`CCCCS(=N)(=O)CC[C@H](N)C(=O)O` (some centres undefined): the GI50 in the experiment with UACC-62 melanoma was over 8090 µM; in the experiment with SNB-19 CNS it was over 10000 µM; in the experiment with SNB-75 CNS, over 10000 µM; in the experiment on M14 melanoma it was over 5620 µM; in the experiment on SW-620 colon it was 3710 µM; with OVCAR-4 ovarian, 13.4 µM. In addition, the GI50 in the experiment on EKVX NSCLC is 615 µM; in the experiment on K-562 leukemia, 11.3 µM; with IGROV1 ovarian, 336 µM; in the experiment on COLO 205 colon, over 10000 µM. Moreover, the TGI in the experiment on UACC-62 melanoma is over 10000 µM; in the experiment on SNB-19 CNS it was over 10000 µM; in the experiment on SNB-75 CNS it was 5000 µM and > 10000 µM; in the experiment on M14 melanoma it was over 5620 µM; in the experiment with SW-620 colon, over 10000 µM; in the experiment with EKVX NSCLC it was 1720 µM and 3890 µM. Also, the TGI in the experiment with K-562 leukemia is over 10000 µM; with IGROV1 ovarian, 4980 µM and 6370 µM; in the experiment with COLO 205 colon, over 10000 µM.
